Measurements taken from publication PMC11187542, “Identification of fragments targeting SMYD3 using highly sensitive kinetic and multiplexed biosensor-based screening” (RSC Medicinal Chemistry, 2024).

Legend:
SMYD3 (apo, native) = biological target: T1, SMYD3 (apo, native) (Homo sapiens, UniProt Q9H7B4); test: GCI biosensor kinetic screening, apo SMYD3 surface; assay type: binding
T1 construct: Full length recombinant SMYD3 was produced as previously reported; made in house; host or cells: E. coli BL21(DE3), in some cases Rosetta 2
T1 sequence (Q9H7B4 1-428): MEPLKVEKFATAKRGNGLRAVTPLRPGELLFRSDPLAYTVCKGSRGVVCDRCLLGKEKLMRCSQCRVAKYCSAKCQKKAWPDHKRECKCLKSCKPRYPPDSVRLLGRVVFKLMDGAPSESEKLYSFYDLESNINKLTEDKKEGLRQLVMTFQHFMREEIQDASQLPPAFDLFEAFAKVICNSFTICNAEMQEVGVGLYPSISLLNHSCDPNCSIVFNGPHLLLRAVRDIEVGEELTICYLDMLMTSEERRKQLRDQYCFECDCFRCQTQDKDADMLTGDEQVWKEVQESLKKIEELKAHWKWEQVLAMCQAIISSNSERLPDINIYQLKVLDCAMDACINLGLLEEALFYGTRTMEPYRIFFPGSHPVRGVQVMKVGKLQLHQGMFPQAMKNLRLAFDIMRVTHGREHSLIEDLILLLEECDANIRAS
Text: (§1) A multiplexed screening assay was set up with three different SMYD3 surfaces and a blank reference surface in flow channels 1–4 (FC1–FC4) (Fig. 2a), as described previously.[5] The apo SMYD3 surface detected fragments interacting anywhere on SMYD3, while a SMYD3 surface blocked by active site-specific tight-binding inhibitor EPZ031686 detected compounds binding elsewhere. The denatured surface served as a reference, detecting fragments binding to unfolded proteins, also potentially present to a significant degree in the other two surfaces.
After preparing the sensor surface and immobilising SMYD3, the functionality of the surface was assessed via analysis of interactions with the co-factor product S-adenosyl-homocysteine (SAH). It was used as a control in all experiments, confirming that sensor surfaces were intact. This was done using the novel multiple injection-based experimental design (Fig. 1) at 25 μM, i.e. in a weak binder mode (Fig. 2b).
(§2) The library was screened using the approach described in Fig. 1, i.e. injection of fragments at 250 μM for increasing durations of time in a single cycle, using a flow rate of 100 μL min^−1, data acquisition set to 40 Hz and with an association time of 5 s and dissociation of 20 s. Each fragment was addressed to all four channels and interactions with the native and blocked surfaces compared. The experimental conditions were chosen to ensure that the assay could reliably characterize the fast and transient interactions expected from typical fragments.
(§3) The kinetic screening of 1056 compounds was successfully completed in 72 hours. […] Hits were identified with full kinetic information using dissociation phases.
(§4) All interaction kinetic experiments were conducted with a GCI–flow-based biosensor (WAVEdelta, Creoptix AG/Malvern Panalytical) and PCH WAVEchip (Creoptix AG/Malvern Panalytical) sensor chips. The sensor chips were conditioned using injections of borate buffer (10 mM sodium tetraborate pH 8.5, 1 M NaCl). The running buffer composition, if not otherwise stated, was TBS buffer (50 mM Tris, 150 mM NaCl, 0.5 mM TCEP, 0.05% Tween 20, 1% DMSO, pH 8). SMYD3 was diluted to the desired concentration in 10 mM bis-Tris (pH 7.0) and amine coupled to the sensor surface of the PCH sensor chip. The sensor chip was functionalized at 25 °C by immobilising SMYD3 with EDC and NHS (Xantec) using an injection time of 420 s and a flow rate of 10 μL min^−1. The immobilisation levels ranged from 5000 pg mm^−2 to 18 500 pg mm^−2 surface mass to enable analysis of fragments spanning a broad range of affinities. After immobilization, the surface was deactivated with a running buffer containing 50 mM Tris for 420 s. The GCI data referencing and analysis were performed using WAVEcontrol V4.5 (Creoptix AG).
(§5) Kinetic measurements with controls and fragments were performed at 15 °C. Analysis of controls and follow up of hits was done using the multi cycle kinetic (MCK) injection of a concentration series for the same time, with a two-fold serial dilution starting at 250 μM for each compound. Solvent correction was performed ranging from 0.5–1.8% DMSO. Blank samples of the running buffer, 1× TBS (50 mM Tris, 150 mM NaCl, 0.5 mM TCEP, 0.05% Tween 20, 1% DMSO, pH 8), were injected during the measurements every fifth cycle. The experimental design illustrated in Fig. 1 was used for the screening against all four surfaces. The sensorgrams were adjusted to account for solvent correction and blank subtraction. Kinetic fitting was performed with the Direct Kinetics engine of WAVEcontrol software V4.5 (Creoptix AG) with a suitable fitting model.

SMYD3 = biological target: T2, SMYD3 (Homo sapiens, UniProt Q9H7B4); test: GCI biosensor multi cycle kinetic confirmation of hits; assay type: binding; conditions: two-fold serial dilution starting at 250 μM, 15 °C, global fit 1:1 model
T2 construct: Full length recombinant SMYD3 was produced as previously reported; made in house; host or cells: E. coli BL21(DE3), in some cases Rosetta 2
T2 sequence (Q9H7B4 1-428): T1 sequence (Q9H7B4 1-428)
Protocol: Selected screening hits were also re-tested by conventional multi cycle kinetic analysis in order to confirm the interactions (some compounds were no longer available). Two variants of the GCI biosensor assay were set up, using different immobilisation levels, to allow the confirmation of hits over a broad range of affinities. […] The kinetics varied for the selected hits (ESI, ^† Fig. S2). All hits were not confirmed (ESI, ^† Fig. S1b).
as §4, §5
FL06268 Superstoichiometric and
Figure 1. Examples of sensorgrams from multicycle kinetic experiments with initial fragment hits and SMYD3. A)
Fragments for which crystal structures of the complex with SMYD3 were obtained. A global fit of the sensorgrams
crystal structures were not obtained. […]

[1] = biological target: T3, SMYD3 in complex with active site-specific tight-binding inhibitor EPZ031686 (Homo sapiens, UniProt Q9H7B4); test: GCI biosensor kinetic screening, active site blocked SMYD3 surface
T3 construct: Full length recombinant SMYD3 was produced as previously reported; made in house; host or cells: E. coli BL21(DE3), in some cases Rosetta 2
T3 sequence (Q9H7B4 1-428): T1 sequence (Q9H7B4 1-428)
Text: as §1, §2, §3, §4, §5

LE (ligand efficiency) (SMYD3 (apo, native); LE = −RT ln(KD)/n): 0.63 (kcal^-1 mol^-1)/HA
Kd (SMYD3 (apo, native); initial kinetic screening, fragment 250 μM, 15 °C): 24.5 µM
kd (SMYD3 (apo, native); initial kinetic screening, fragment 250 μM, 15 °C, 1:1 model): 0.52 s⁻¹
kon at 250 µM (SMYD3 (apo, native); initial kinetic screening, fragment 250 μM, 15 °C, 1:1 model, read-out: ka): 21400 M⁻¹ s⁻¹
Outcome of multicycle kinetic experiment (sensorgram assessment) (SMYD3): Superstoichiometric
LE (ligand efficiency) ([1]; LE = −RT ln(KD)/n, blocked SMYD3 surface): 0.63 (kcal^-1 mol^-1)/HA
Kd ([1]; initial kinetic screening, fragment 250 μM, 15 °C, SMYD3 blocked by EPZ031686): 24 µM
kd ([1]; initial kinetic screening, fragment 250 μM, 15 °C, SMYD3 blocked by EPZ031686, 1:1 model): 0.83 s⁻¹
kon at 250 µM ([1]; initial kinetic screening, fragment 250 μM, 15 °C, SMYD3 blocked by EPZ031686, 1:1 model, read-out: ka): 34100 M⁻¹ s⁻¹
Structure (SMILES): Cn1cnc(S(N)(=O)=O)c1 [FL06268]
